The values below come from patent publication US9210914B2, “Method for training honeybees to respond to olfactory stimuli and enhancement of memory retention therein” (LOS ALAMOS NATIONAL SECURITY, LLC, priority 2011, dated 2015).

Assay type in all cases: in vivo, Apis mellifera
In data set [1] the test system is honeybees. Kind of data set: Long-term memory retention of conditioned PER response in honeybees fed supplements. As for the experimental part:
(§1) The bees were brought back to the lab and split into three groups. One control group was fed 40% sugar water in a trough or on parafilm in cage. […] The second and third experimental groups were given 40% sugar water spiked with the cocktail. All honeybees were handled the same way. The mixture was to the honeybees from the beginning of capture, through training and until the completion of the experiment.
Long-term memory enhancements using PKA and caffeine were also tested. […] Approximately 3.9 units PKA/bee (1 μl) and 15.6 units PKA/bee (4 μl) were administrated.

The subject of data set [2] is honeybees. Briefly: Trainability of honeybees in PER olfactory conditioning. As to conditions: JHIII alone, 250 mg/ml in acetone, topical administration to thorax, 3 ul; foragers (TNT) or young (linalool).
The test system of data set [3] is honeybees. Briefly: Death rate of honeybees after supplement administration. The note with it: Four μl PKA (15.6 units PKA/bee). As for the experimental part: as §1
Long-term memory enhancements using PKA and caffeine were also tested. Caffeine and PKA, when administered separately, increase long-term memory out to a minimum of 3 days post training. Approximately 3.9 units PKA/bee (1 μl) and 15.6 units PKA/bee (4 μl) were administrated.

Setting [4] is: 1 μl PKA (approximately 3.9 units PKA/bee).

As for `Cn1c(=O)c2c(ncn2C)n(C)c1=O` [Caffeine, caffeine], the “long term memory recall” value in data set [1] (caffeine at 2.5 mM, compared to concentrations ranging 0-5 mM) is listed as “best improvement in long term memory recall”.

`COC(=O)/C=C(\C)CC/C=C(\C)CC[C@H]1OC1(C)C` [JHIII, Juvenile Hormone III]: the trainability entry in data set [2] is on record as “does not appear to substantially increase trainability”.

Take `Nc1ncnc2c1ncn2[C@@H]1O[C@@H]2COP(=O)(O)O[C@H]2[C@H]1O` [cAMP, cyclic adenosine monophosphate]: the “long-term memory in honeybees trained to C-4” value in data set [1] (1mM cAMP ingested in 40% sucrose solution, alone) is “did not appear to significantly increase long-term memory”.

On to protein kinase A [PKA], for which, in data set [3], the “death rate at Day 3 post training and exposure” value is “larger death rate”. Further, in data set [1] (setting [4]), the “long-term memory at the 24 hour mark” value is recorded as “increase in long-term memory” and the “long-term memory at the 48 hour mark” value is “increase in long-term memory”.
